What was measured:
Type in all cases: cell-based
[1] = tested on: isolated rat islets; assay: Etoposide-induced apoptosis, Annexin V staining by flow cytometry, isolated rat islets; details: 72 hr
Description: Pools of 50 islets were treated with DMSO, etoposide (0.2 mM) or camptothecin (10 μM) for 72 hrs as indicated. Islets were co-incubated with peptide (50 nM TLQP-21, 50 nM exendin-4), H89 (concentration), and/or LY294002 (concentration) where indicated. Islets were dispersed using 0.05% trypsin/EDTA (Sigma) diluted 1:1 with cell dissociation buffer (Sigma) for 5-10 min at 37 C following gentle pipetting. Islets were recovered by centrifugation and stained with FITC-conjugated Annexin V and propidium iodide (Roche) according to the manufacturer's specifications. Data were collected using a FACScan analyzer and analyzed using WinMDI 2.9 software.

[2] = tested on: 832/3 cells; assay: Glucose-stimulated insulin secretion (GSIS), static incubation, 832/3 cells; details: 12 mM Glc, concentrations that augment insulin release in rat islets
Description: (§1) 832/3 and 832/13 cells derived from the parental INS-1 cell line were cultured as previously described (REF-Hohmeier/Wolheim). Pancreatic islets were isolated from male Sprague-Dawley rats according to standard procedures (See, e.g., Ronnebaum et al., (2006) J. Biol. Chem. 281: 30593-30602). For cell culture experiments, TLQP-21 was purchased from Phoenix Pharmaceuticals. For animal studies, TLQP-21 was synthesized by GenScript Corporation. AQEE-30 was a kind gift of Dr. Yun-Ping (Merck Research Laboratories).
832/3 cells were plated in triplicate per condition in 12-well dishes and assayed at confluence. Cells were washed in SAB buffer and pre-incubated for 1.5 hr in SAB containing 2.5 mM Glc. Insulin was collected by static incubation in SAB containing 2.5 mM Glc for 2 hrs at 37° C. (basal) followed by incubation in SAB containing 12 mM Glc for 2 hrs (stimulatory). Secretagogues (20 nM exendin-4, TLQP-21, AQEE-30) were added where indicated. Cells were washed in PBS, collected by centrifugation, and lysed in 50 uL RIPA containing 5 mM EDTA. Total protein was determined by BCA (Pierce). Insulin was measured from SAB using the Coat-a-Count kit (Siemens). Insulin content was determined from a 1:500 dilution of total protein.

[3] = tested on: primary rat islets; assay: Glucose-stimulated insulin secretion (GSIS), static incubation, primary rat islets; details: 16.7 mM Glc
Description: as §1
Human VGF cDNA was purchased from Open Biosystems and subcloned into pAC.CMV using PCR engineered restriction sites. Recombinant adenovirus was generated as previously described (REF). Adenoviruses expressing Nkx6.1, Pdx-1, GFP, beta-galactosidase have been described elsewhere (REF). […]
Islets: 3 groups of 20 islets were washed with phosphate-buffered saline (PBS) and incubated in secretion assay buffer (SAB; 114 mM NaCl, 4.7 mM KCl, 1.2 mM […], 1.16 mM MgSO4, 25 mM HEPES pH 7.2, 2.5 mM CaCl2, 0.2% bovine serum albumin (Gibco), 25.5 mM NaHCO3) containing 2.5 mM Glc for 1 hr at 37° C. […] Islets were lysed in RIPA buffer containing 5 mM EDTA and total protein determined by BCA (Pierce). Insulin was measured from SAB using the Coat-a-Count kit (Siemens). Insulin content was determined from a 1:100 dilution of total protein.

[4] = tested on: primary rat islets; assay: cAMP level determination in primary rat islets; details: 16.7 mM Glc, 30 min, TLQP-21 50 nM, exendin-4 20 nM, relative to untreated control
Description: Primary rat islets and 832/3 cells were prepared as stated for insulin secretion measurements except the incubation at stimulatory glucose was for 30 min in the presence of 0.1 mM isobuytlmethylxanthine (IBMX). Rat islets were rapidly transferred to 0.2 mL of ice-cold 80% ethanol and stored at −80° C. until assayed. Samples were evaporated to dryness and assayed using the cAMP EIA kit from Biomedical Technologies, Inc. using acetylation protocol. For 832/3 cells, the secretion buffer was removed and rapidly replaced with 0.5 mL of 80% ethanol. Cells were stored at −80° C. until assayed. 0.2 mL of sample was evaporated to dryness and assayed for cAMP using the non-acetylation protocol.

**Q.** Which results are given for `COc1cc([C@@H]2c3cc4c(cc3[C@@H](O[C@@H]3O[C@@H]5CO[C@@H](C)O[C@H]5[C@H](O)[C@H]3O)[C@H]3COC(=O)[C@H]23)OCO4)cc(OC)c1O` [etoposide]?
**A.** increase in Annexin V positive cells over untreated (DMSO) control ([1]; etoposide 0.2 mM alone): 18%; islet cells staining positive for Annexin V ([1]; etoposide 0.2 mM alone): 35%

**Q.** With “AQEE-30: second C-terminal VGF peptide; SEQ ID NO:14 is rat AQEE-30 polypeptide (AQARRAQEEADAEERRLQEQEELENYIEHVLLHRP; listed as Rattus norvegicus)” as the compound, how does the “ability to potentiate GSIS” value [2] read?
**A.** unable to augment GSIS

**Q.** And the “ability to potentiate GSIS” value [3]?
**A.** unable to augment GSIS

**Q.** exendin-4 was tested. Which “protection against etoposide-mediated apoptosis” value ([1]; co-culture with etoposide 0.2 mM) did it give?
**A.** comparable level of protection

**Q.** What about the “increase in cAMP levels” value [4] of the same compound?
**A.** ~3 fold

**Q.** What about the “enhancement of GSIS” value ([3]; 20 nM) of the same compound?
**A.** 1.8 fold

From patent US8580732B2, “Peptide therapy for hyperglycemia” (Duke University, priority 2009, dated 2013)
